# Literature values, collected in publication PMC7941644, “Identification and Development of Therapeutics for COVID-19” (ArXiv, 2021).
# Structures can show the parent of a compound that is named as a salt. Where two headings read alike, the source gives them in different places.
# Tests used:
# Vero E6 cells = details: read-out: 90% effective concentration (EC90)
# SARS-CoV-1 [1] = details: Vero E6 cells
# SARS-CoV-2 [2] = details: SARS-CoV-2 infection of Vero cells
# COVID-19 [3] = system: COVID-19; design: method as in PMID 33492523; details: mild to moderate symptoms, in addition to SOC; p = 0.06
# COVID-19 [4] = system: COVID-19; design: method as in ref 145 = [145]; 145. August 6, 2021: Early Treatment of COVID-19 with Repurposed Therapies: The TOGETHER Adaptive Platform Trial (Edward Mills, PhD, FRCP) Rethinking Clinical Trials ( 2021 - 08 - 11 ) https://rethink; details: placebo group 107; preliminary analysis as of August 6, 2021
# COVID-19 [5] = details: compared to placebo
# SARS-CoV-1 [6] = details: mouse, in vivo
# COVID-19 [7] = system: COVID-19; design: method as in PMID 33031764
# COVID-19 [8] = details: ivermectin preliminary; HCQ and lopinavir-ritonavir ref 144
# COVID-19 [9] = system: COVID-19
# COVID-19 [10] = system: COVID-19; remark: listed apart in the source
# COVID-19 [11] = system: COVID-19; remark: listed apart in the source
# COVID-19 [12] = details: significant when intubated patients excluded
# COVID-19 [13] = system: COVID-19; remark: listed apart in the source
# COVID-19 [14] = system: COVID-19; remark: listed apart in the source
# COVID-19 [15] = details: p < 0.001
# COVID-19 [16] = details: 95% CI 0.376–0.547, p < 0.001
# COVID-19 [17] = system: COVID-19; design: method as in ref 210; combination ref 208; details: phase 2 portion; bamlanivimab alone ref 210; combination ref 208
# SARS-CoV-2 [18] = system: SARS-CoV-2; design: method as in PMID 32142651; details: lung cells in vitro
# COVID-19 [19] = system: COVID-19; remark: listed apart in the source
# COVID-19 [20] = system: COVID-19; design: method as in PMID 33065103
# SARS-CoV-2 [21] = system: SARS-CoV-2; design: method as in PMID 32251768; details: Vero-hSLAM; at concentrations much higher than existing dosage guidelines
# COVID-19 [22] = system: COVID-19; design: method as in PMID 33175880
# COVID-19 [23] = system: COVID-19; design: method as in PMID 33662102; details: 400 patients
# IL-10 = system: IL-10; design: method as in PMID 8902882
# COVID-19 [24] = system: COVID-19; design: method as in doi:10.1101/2020.06.22.20137273
# IL-12 = system: IL-12; design: method as in PMID 8902882
# COVID-19 [25] = system: COVID-19; remark: listed apart in the source
# COVID-19 [26] = system: COVID-19; remark: listed apart in the source
# COVID-19 [27] = details: vs SOC alone
# SARS-CoV-2 [28] = system: SARS-CoV-2
# SARS-CoV-2 [29] = system: SARS-CoV-2; remark: listed apart in the source
# COVID-19 [30] = details: vs SOC
# COVID-19 [31] = system: COVID-19; remark: listed apart in the source
# COVID-19 [32] = details: HCQ arm vs control
# SARS-CoV-2 [33] = details: control 16.8%, p < 0.001
# SARS-CoV-2 [34] = details: second interim analysis, 600 mg daily; control 3
# COVID-19 [35] = system: COVID-19; remark: listed apart in the source
# COVID-19 [36] = details: days 3–6; study design severely limited
# COVID-19 [37] = details: treatment vs control groups
compound,measurement,setting,value
"CCN(CC)CCCC(C)Nc1ccnc2cc(Cl)ccc12 (centres unmarked) [CQ, chloroquine]",EC90,Vero E6 cells,6.9 µM
same,inhibition of viral entry,SARS-CoV-1 [1],inhibited viral entry of SARS-CoV-1
same,inhibition of viral replication,SARS-CoV-2 [2],effective in inhibiting viral replication
same,hospital stay,COVID-19 [3],15.89 days
COCCCC/C(=N\OCCN)c1ccc(C(F)(F)F)cc1 [fluvoxamine],patients progressed to hospitalization for COVID-19,COVID-19 [4],74
sotrovimab,rates of adverse events,COVID-19 [5],"comparable, and in some cases lower"
same,more effective in reducing progression to the primary endpoint (hospitalized for more than 24 hours or died within 29 days),COVID-19 [5]; 583 patients,85%
poly(I:C),effect when administered prior to infection,SARS-CoV-1 [6],protective effects
lopinavir-ritonavir,effect on COVID-19-related mortality,COVID-19 [7],no effect
same,effect on COVID-19 outcomes,COVID-19 [8],no effect
TCZ: humanized monoclonal antibody that binds the insoluble and soluble receptor of IL-6,"rate ratio, hospital discharge within 28 days","COVID-19 [9]; 95% CI 1.12–1.34, p < 0.0001",1.22
same,"rate ratio, 28-day mortality","COVID-19 [9]; RECOVERY combined with seven smaller randomized control trials, 95% CI 0.79–0.96, p = 0.005",0.87
same,28-day mortality,COVID-19 [9]; SOC alone 33%,29%
same,"rate ratio, 28-day mortality","COVID-19 [9]; TCZ vs SOC, 95% CI 0.77–0.96, p = 0.007",0.86
same,reduction in 28-day mortality,COVID-19 [9]; combined analysis of RECOVERY with smaller RCTs,13%
same,probability of hospital discharge within 28 days,"COVID-19 [9]; living patients, SOC 47%",54%
same,participants with adverse reactions determined to be associated with the intervention,"COVID-19 [9]; out of 2,022 participants receiving TCZ",three
same,change in symptoms following treatment,COVID-19 [10],rapid improvement in symptoms
same,patients dying,"COVID-19 [11]; 2 of 62 admitted after TCZ available, 11 of 23 (47.8%) before",3.2%
same,"multivariate HR, survival","COVID-19 [11]; CI 0.004–0.347, p = 0.004",0.035
same,"mortality, TCZ vs SOC",COVID-19 [12],did not differ
same,progression to invasive medical ventilation,"COVID-19 [13]; SOC 32%, p = 0.006",0%
same,mortality,"COVID-19 [13]; SOC 48%, p = 0.066",25%
same,progression to death and/or ICU admission,"COVID-19 [13]; SOC 72%, p = 0.002",25%
same,"adjusted HR, progression to invasive medical ventilation and/or death","COVID-19 [14]; 14-day period, CI 0.40–0.92, p = 0.020",0.61
same,death rate,COVID-19 [14]; control 20%,7%
same,secondary infections,"COVID-19 [14]; control group 4%, p < 0.0001",24%
same,"HR, survivorship",COVID-19 [15]; 19 studies,0.41
same,"HR, survivorship",COVID-19 [15]; excluding studies that administered a steroid alongside TCZ,0.04
same,odds ratio of mortality,COVID-19 [16],0.453
bamlanivimab: human mAb derived from convalescent plasma of a recovered COVID-19 patient,effect on viral load,COVID-19 [17],able to accelerate the reduction in viral load
CN(C)C(=O)COC(=O)Cc1ccc(OC(=O)c2ccc(NC(=N)N)cc2)cc1 [camostat mesylate],block of viral entry,SARS-CoV-2 [18],block the entry of SARS-CoV-2 into lung cells
Cc1cccc(C)c1OCC(=O)N[C@@H](Cc1ccccc1)[C@@H](O)C[C@H](Cc1ccccc1)NC(=O)[C@H](C(C)C)N1CCCNC1=O [lopinavir],effect on COVID-19-related mortality,COVID-19 [19],no effect
CC[C@H](C)[C@H]1O[C@]2(CC[C@@H]1C)C[C@@H]1C[C@@H](C/C=C(\C)[C@@H](O[C@H]3C[C@H](OC)[C@@H](O[C@H]4C[C@H](OC)[C@@H](O)[C@H](C)O4)[C@H](C)O3)[C@@H](C)/C=C/C=C3\CO[C@@H]4[C@H](O)C(C)=C[C@@H](C(=O)O1)[C@]34O)O2 [ivermectin],all-cause mortality,COVID-19 [20],reduced all-cause mortality
same,inhibition of viral replication,SARS-CoV-2 [21],inhibit viral replication
same,clinical outcomes or viral clearance,COVID-19 [22],no difference in clinical outcomes or viral clearance
same,effect on COVID-19 outcomes,COVID-19 [8],no effect on COVID-19 outcomes
same,duration of symptoms,COVID-19 [23],no effect on the duration of symptoms
"C[C@@H]1C[C@H]2[C@@H]3CCC4=CC(=O)C=C[C@]4(C)[C@@]3(F)[C@@H](O)C[C@]2(C)[C@@]1(O)C(=O)CO [dexamethasone, 9α-fluoro-16α-methylprednisolone]",effect on IL-10,IL-10,not to affect IL-10
same,28-day mortality rate,"COVID-19 [24]; all patients, 6 mg per day for up to 10 days, SOC 24.6%, p < 0.001",21.6%
same,28-day mortality,"COVID-19 [24]; patients breathing independently at randomization, SOC 14.0%",17.8%
same,28-day mortality,"COVID-19 [24]; patients receiving oxygen supplementation at randomization, SOC 26.2%",23.3%
same,28-day mortality,"COVID-19 [24]; patients ventilated at randomization, SOC 41.4%",29.3%
same,effect on IL-12 production,IL-12,dose-dependent inhibition of IL-12 production
"NC(=O)c1nc(F)cnc1O [favipiravir, 6-fluoro-3-hydroxy-2-pyrazinecarboxamide]",effect on viral clearance at four days (secondary endpoint),COVID-19 [25],significant effect
same,tolerability,COVID-19 [25],generally well-tolerated
same,time to viral clearance by RT-PCR,"COVID-19 [26]; 35 favipiravir, 45 control patients",four
same,patients with adverse side effects,COVID-19 [26]; control 56%,11%
same,improvement rate of lung CT scans,"COVID-19 [26]; day 14, control 62%, p = 0.004",91%
same,effect on viral clearance at day 14 and secondary outcomes,COVID-19 [27],no significant effect
same,hospital stay,COVID-19 [3],13.29 days
COC(=O)OCOc1c2n(ccc1=O)N([C@@H]1c3ccccc3SCc3c1ccc(F)c3F)[C@@H]1COCCN1C2=O [baloxavir marboxil],effect on viral clearance at day 14 and secondary outcomes,COVID-19 [27],no significant effect
O=c1c2ccccc2[se]n1-c1ccccc1 [ebselen],antiviral effect in SARS-CoV-2-infected Vero cells,SARS-CoV-2 [28],strongest potency in reducing the viral load
"CCN(CCO)CCCC(C)Nc1ccnc2cc(Cl)ccc12 (centres unmarked) [HCQ, hydroxychloroquine]",median time to symptom alleviation,"SARS-CoV-2 [29]; HCQ + SOC, SOC 21 days, p = 0.97",19 days
same,estimated difference in negative conversion rate of SARS-CoV-2 in 28 days,"SARS-CoV-2 [29]; SOC plus HCQ vs SOC, 95% CI −10.3% to 18.5%",4.1%
same,diarrhea,"SARS-CoV-2 [29]; SOC+HCQ, 0% in SOC group, p = 0.004",10%
same,patients reporting adverse outcomes,"SARS-CoV-2 [29]; SOC+HCQ, SOC only 8.8%",30%
same,time to fever break and time to cough relief,COVID-19 [30],decreased both average time to fever break and average time to cough relief
same,"adjusted HR, risk of death",COVID-19 [31]; compared to no-HCQ group,2.61
same,rate of death,"COVID-19 [31]; men, median age 65, no-HCQ group 14.1%",27.8%
same,increase in cardiac events,COVID-19 [32],0.4 percentage points
same,patients reporting side effects,SARS-CoV-2 [33],40.1%
same,individuals who had contracted COVID-19,SARS-CoV-2 [34],4
same,inhibition of viral replication,SARS-CoV-2 [2],effective in inhibiting viral replication
same,difference in viral load between HCQ and control groups,"COVID-19 [35]; day 3, 95% CI −0.28 to 0.29",0.01
same,difference in viral load between HCQ and control groups,"COVID-19 [35]; day 7, 95% CI −0.44 to 0.29",−0.07
same,difference in time to complete resolution of symptoms,COVID-19 [35]; p = 0.38,-2 days
same,effect on COVID-19 outcomes,COVID-19 [8],no effect
same,virological clearance by nasopharyngeal swab,COVID-19 [36],higher rates of virological clearance
same,"virological clearance rate, time to virological clearance, time to body temperature normalization",COVID-19 [37],comparable outcomes
same,risk with short-term use,,not associated with additional risk
